Assay [1] has as its system MSSA ATCC25923. As to the kind of experiment: MIC with addition of PG, LPS or D-Ala-D-Ala (Example 3). As to conditions: for MIC: MSSA (ATCC25923); for change in MIC by the addition of PG: MSSA ATCC25923, PG 30 μg/ml. The format is cell-based, Staphylococcus aureus. How it is done:
(§1) Regarding EGCG-C16, whether or not the antibacterial action thereof against MSSA and MRSA is inhibited by the addition of: peptidoglycan (PG) or D-Ala-D-Ala, which are each a cell wall component; or lipopolysaccharide (LPS), which is an outer membrane component, was examined. The MIC measurement was carried out in the manner described in Section (2) of Example 2.
(§2) In Example 3, EGCG-C16 prepared in Example 1 was used as an antibacterial agent. In Comparative Example 3, unsubstituted EGCG was used as an antibacterial agent. […] Antibacterial agent solutions of EGCG-C16 and EGCG were prepared in the same manner as described in Section (2) of Example 1. Antibacterial agent solutions of the antibacterial agents other than EGCG-C16 and EGCG were prepared by dissolving them in PBS.
(§3) As additives, PG (Peptidoglycan Staphylococcus aureus, SIGMA-ALDRICH), D-Ala-D-Ala (SIGMA-ALDRICH), and LPS (Lipopolysaccharide Salmonella, SIGMA-ALDRICH) were provided. Each of the additives was dissolved in PBS, and the resultant solution was used as an additive solution.
(§4) Dilution series of the antibacterial agent solutions were prepared. Each of them was dispensed to a 96-well plate. Further, the additive solution was added thereto and mixed. After that, a bacterial culture solution of MRSA ATCC43300 or MSSA ATCC25923 was added thereto and cultured at 37° C. for 18 hours. In the mixture of the antibacterial agent solution, the additive solution, and the bacterial culture solution, the final concentrations of PG, D-Ala-D-Ala, and LPS were each set to 30 μg/ml. Unless otherwise stated, the minimum inhibitory concentration (MIC) was calculated in the same manner as described in Section (2) of Example 2.

Assay [2] concerns MRSA ATCC43300. The description is as above. Format: cell-based, Staphylococcus aureus. As to conditions: for MIC: MRSA (ATCC43300); for change in MIC by the addition of PG: MRSA ATCC43300, PG 30 μg/ml. How it is done:
as §1, §2, §3, §4

Assay [3] concerns MRSA ATCC43300. As to the kind of experiment: Membrane damaging properties, SYTOX Green fluorescence (Example 4). The format is cell-based, Staphylococcus aureus. As to conditions: 37° C., 15 minutes, EGCG derivative 4-32, EGCG 8-128, NISIN 1-8 μg/ml, FIG. 3. How it is done: (§5) As an antibacterial agent, the EGCG-C16 prepared in Example 1 was used in Example 4; EGCG was used in Comparative Example 4; and membrane-damaging peptide NISIN (MP Biomedicals) was used in a reference example. Antibacterial agent solutions of EGCG-C16 and EGCG were prepared by dissolving them in DMSO so as to achieve top concentrations, respectively. An antibacterial agent solution of the other antibacterial agent was prepared by dissolving it in PBS and diluted with PBS as appropriate. The influence of DMSO used for dissolving the antibacterial agents also was considered.
MSSA ATCC25923 and MRSA ATCC43300 were subjected to shaking culture in MH-broths (Difco) until they reached a late stage in the exponential growth phase. The thus-obtained culture solutions were each centrifuged at 7000 rpm for 10 minutes, and bacterial cells that had settled were suspended in PBS. The suspension of the bacterial cells was added to wells of a 384 black plate, and each of the antibacterial agent solutions was further added thereto and mixed. The resultant mixture was incubated at 37° C. for 15 minutes. Subsequently, a dead cell-staining dye (trade name “SYTOX Green”, LONZA) was mixed in each well so that the concentration thereof became 10 μmol/l, and the resultant mixture was incubated at 37° C. for 10 minutes. The final concentrations of the respective antibacterial agents were as follows: 4, 8, 16, and 32 μg/ml for the EGCG derivative; 8, 16, 32, 64, and 128 μg/ml for EGCG; and 1, 2, 4, and 8 μg/ml for NISIN. […] On the other hand, as a control, the fluorescence intensity was measured in the same manner, except that PBS or 10% DMSO was added instead of the antibacterial agent solutions. Then, regarding each of the MSSA and MRSA, the ratio of the fluorescence intensity when each of the agents was added was calculated assuming that the fluorescence intensity obtained in the control (PBS) was 1.

Assay [4] deals with MSSA ATCC25923. Described as above. As to conditions: 37° C., 15 minutes, EGCG derivative 4-32, EGCG 8-128, NISIN 1-8 μg/ml, FIG. 3. The format is cell-based, Staphylococcus aureus. Here is the method:
as §5
MSSA ATCC25923 and MRSA ATCC43300 were subjected to shaking culture in MH-broths (Difco) until they reached a late stage in the exponential growth phase. The thus-obtained culture solutions were each centrifuged at 7000 rpm for 10 minutes, and bacterial cells that had settled were suspended in PBS. The suspension of the bacterial cells was added to wells of a 384 black plate, and each of the antibacterial agent solutions was further added thereto and mixed. The resultant mixture was incubated at 37° C. for 15 minutes. Subsequently, a dead cell-staining dye (trade name “SYTOX Green”, LONZA) was mixed in each well so that the concentration thereof became 10 μmol/l, and the resultant mixture was incubated at 37° C. for 10 minutes. […] On the other hand, as a control, the fluorescence intensity was measured in the same manner, except that PBS or 10% DMSO was added instead of the antibacterial agent solutions. Then, regarding each of the MSSA and MRSA, the ratio of the fluorescence intensity when each of the agents was added was calculated assuming that the fluorescence intensity obtained in the control (PBS) was 1.

Assay [5] deals with Methicillin-susceptible Staphylococcus aureus (MSSA) NCTC8325. Briefly: MIC, broth microdilution (Example 1). The format is cell-based. As to conditions: MH-broth, 37° C., 18 hours. Here is the method:
(§6) Methicillin-susceptible Staphylococcus aureus (MSSA) NCTC8325 and methicillin-resistant Staphylococcus aureus (MRSA) ATCC43300 were used as bacteria. The bacteria of each type were cultured using Mueller-Hinton Broth (MH-broth, Difco) as a medium. Then, the minimum inhibitory concentration (MIC) of each of the EGCG derivatives was measured by a broth microdilution method in accordance with the Clinical and Laboratory Standards Institute (CLSI) guidelines (hereinafter the same).
(§7) First, each of the EGCG derivatives was dissolved in 100% dimethyl sulfoxide (DMSO, Wako Pure Chemical Industries, Ltd.) so that the concentration thereof became 5120 μg/ml. The resultant solution was diluted with DMSO or sterile distilled water so as to prepare two-fold dilution series of antibacterial agent solutions. […] Each of these antibacterial agent solutions was dispensed to wells of a 96-well plate. The concentration of the EGCG derivative in the antibacterial agent solution dispensed to the wells was set to be 10 times as high as the final concentration. On the other hand, the bacteria were cultured in the MH-broth at 37° C. overnight, and the thus-obtained pre-culture solution was diluted with a new MH-broth so that the concentration thereof in the MH-broth became 10^−4 (10^4-fold dilution), thus preparing a bacterial culture solution of about 1×10^5 CFU/ml (CFU: Colony Forming Unit, the number of viable cells). The bacterial culture solution was further added to each well, and the mixture was cultured at 37° C. for 18 hours. The ratio (volume ratio) between the antibacterial agent solution and the bacterial culture solution added to each well was set to 1:9 (the antibacterial agent solution:the bacterial culture solution), and the volume of the mixture of them per well was set to 100 μl in total. The final concentration of the EGCG derivative in the mixture was set to 8 μg/ml to 512 μg/ml, and the number of viable cells in the mixture was set to about 1×10^5 CFU/ml. Then, after the completion of the culture, the MIC was determined. Also, the turbidity (OD600 nm) was measured using a plate reader so as to identify minor differences.
(§8) As Comparative Example 1, the same procedures as in Example 1 were performed, except that unsubstituted EGCG was used as an antibacterial agent instead of the EGCG derivatives of Example 1. Furthermore, as a control, the same procedures as in Example 1 were performed, except that sterile distilled water, 100% DMSO, or 50% DMSO was used instead of the antibacterial agent solutions containing the EGCG derivatives.

The subject of assay [6] is methicillin-resistant Staphylococcus aureus (MRSA) ATCC43300. As to the kind of experiment: MIC, broth microdilution (Example 1). Format: cell-based. As to conditions: for MIC: MRSA ATCC43300, MH-broth, 37° C., 18 hours. How it is done: as §6, §7, §8
Setting [7] is: +D-Ala-D-Ala (30 μg/mL), lower part of Table 9.
[8] abbreviates: +LPS (30 μg/mL), upper part of Table 9.
The mark [9] stands for this setting: +PG (30 μg/mL), lower part of Table 9 (PG/D-Ala-D-Ala series).
Setting [10] is: +PG (30 μg/mL), upper part of Table 9 (PG/LPS series).
Where [11] appears, read: MH-broth free of additives, lower part of Table 9 (PG/D-Ala-D-Ala series).
[12] abbreviates: MH-broth free of additives, upper part of Table 9 (PG/LPS series).

The source of these data is patent US9801850B2, “Antibacterial agent” (OSAKA UNIVERSITY, priority 2009, dated 2017).

In brackets after ≈: the same amount, converted by molar mass.

As usually defined, the MIC is the least concentration at which growth counts as inhibited. A higher MIC goes with a need for much substance. As for `CN[C@H](CC(C)C)C(=O)N[C@H]1C(=O)N[C@@H](CC(N)=O)C(=O)N[C@H]2C(=O)N[C@H]3C(=O)N[C@H](C(=O)N[C@H](C(=O)O)c4cc(O)cc(O)c4-c4cc3ccc4O)[C@H](O)c3ccc(c(Cl)c3)Oc3cc2cc(c3O[C@@H]2O[C@H](CO)[C@@H](O)[C@H](O)[C@H]2O[C@H]2C[C@](C)(N)[C@H](O)[C@H](C)O2)Oc2ccc(cc2Cl)[C@H]1O` [VCM, vancomycin], the minimum inhibitory concentration (MIC) against MSSA ATCC25923 [1] (setting [7]) was determined as 16 µg/mL (≈ 11 µM); in the assay on MSSA ATCC25923 [1] (setting [8]), 2 µg/mL (≈ 1.38 µM); with MSSA ATCC25923 [1] (setting [9]), 2 µg/mL (≈ 1.38 µM); in the assay with MSSA ATCC25923 [1] (setting [10]), 4 µg/mL (≈ 2.76 µM); against MSSA ATCC25923 [1] (setting [11]) it was 1 µg/mL (≈ 0.69 µM); in the assay on MSSA ATCC25923 [1] (setting [12]) it was 2 µg/mL (≈ 1.38 µM). Besides, the MIC with MRSA ATCC43300 [2] (setting [7]) worked out at 16 µg/mL (≈ 11 µM); against MRSA ATCC43300 [2] (setting [8]), 2 µg/mL (≈ 1.38 µM); against MRSA ATCC43300 [2] (setting [9]) it was 2 µg/mL (≈ 1.38 µM); with MRSA ATCC43300 [2] (setting [10]), 4 µg/mL (≈ 2.76 µM); in the assay on MRSA ATCC43300 [2] (setting [11]), 1 µg/mL (≈ 0.69 µM); in the assay on MRSA ATCC43300 [2] (setting [12]), 2 µg/mL (≈ 1.38 µM). The “change in MIC by the addition of PG” value with MSSA ATCC25923 [1] and in the assay with MRSA ATCC43300 [2] was “doubled” throughout.
Regarding NISIN [reference compound], the “fluorescence intensity ratio of SYTOX Green (control PBS = 1)” value in the assay with MRSA ATCC43300 [3] and in the assay with MSSA ATCC25923 [4] was “very high fluorescence intensity ratio” throughout.
For the molecule teicoplanin, the MIC is 32 µg/mL in the assay with MSSA ATCC25923 [1] (setting [7]); 1 µg/mL in the assay on MSSA ATCC25923 [1] (setting [8]); 2 µg/mL with MSSA ATCC25923 [1] (setting [9]); 2 µg/mL against MSSA ATCC25923 [1] (setting [10]); 1 µg/mL against MSSA ATCC25923 [1] (setting [11]); 1 µg/mL against MSSA ATCC25923 [1] (setting [12]). The MIC against MRSA ATCC43300 [2] (setting [7]) came to 16 µg/mL; in the assay with MRSA ATCC43300 [2] (setting [8]) it was 1 µg/mL; against MRSA ATCC43300 [2] (setting [9]), 1 µg/mL; against MRSA ATCC43300 [2] (setting [10]), 1 µg/mL; with MRSA ATCC43300 [2] (setting [11]) it was 0.5 µg/mL; against MRSA ATCC43300 [2] (setting [12]), 0.5 µg/mL. Also, the “change in MIC by the addition of PG” value in the assay on MSSA ATCC25923 [1] and in the assay on MRSA ATCC43300 [2] was “doubled” throughout.
In the case of EGCG-octanonate [EGCG-C8], in assay [5], the MIC stood at 8 µg/mL.
Regarding `CC1(C)S[C@@H]2[C@H](NC(=O)[C@H](N)c3ccccc3)C(=O)N2[C@H]1C(=O)O` [ABPC, ampicillin], the minimum inhibitory concentration (MIC) against MSSA ATCC25923 [1] (setting [7]) turned out to be 0.25 µg/mL (≈ 0.715 µM); with MSSA ATCC25923 [1] (setting [8]), 0.25 µg/mL (≈ 0.715 µM); in the assay on MSSA ATCC25923 [1] (setting [9]), 0.25 µg/mL (≈ 0.715 µM); in the assay on MSSA ATCC25923 [1] (setting [11]) it was 0.25 µg/mL (≈ 0.715 µM); in the assay on MSSA ATCC25923 [1] (setting [12]), 0.25 µg/mL (≈ 0.715 µM); in the assay on MRSA ATCC43300 [2] (setting [7]), 16 µg/mL (≈ 45.8 µM). For the same molecule, the MIC worked out at 32 µg/mL (≈ 91.6 µM) in the assay on MRSA ATCC43300 [2] (setting [8]); 8 µg/mL (≈ 22.9 µM) with MRSA ATCC43300 [2] (setting [9]); 32 µg/mL (≈ 91.6 µM) in the assay with MRSA ATCC43300 [2] (setting [10]); 16 µg/mL (≈ 45.8 µM) against MRSA ATCC43300 [2] (setting [11]); 32 µg/mL (≈ 91.6 µM) in the assay on MRSA ATCC43300 [2] (setting [12]).
Take EGCG-laurate [EGCG-C12]: the minimum inhibitory concentration (MIC) amounted to 16 µg/mL in assay [6] and 8 µg/mL in assay [5]. In assay [6] (MRSA, FIG. 1 and Table 3), the “inhibition of propagation (MIC, turbidity OD600 nm)” value is recorded as “remarkable propagation-inhibiting effect”.
Take EGCG-eicosanoate [EGCG-C20]: in assay [6], the minimum inhibitory concentration (MIC) amounted to 128 µg/mL.
